Assay results as given in US7473524B2, “Mutational profiles in HIV-1 protease correlated with phenotypic drug resistance” (priority 2002, dated 2009).

Tests used:
Format in all cases: cell-based
[1] = test system: HIV-1/LAI-derived strain Y181C, G190E, T386A; experiment: Antiviral activity in MT4 cells, low MOI strain selected at 1.000 μM, day 35; settings: for Fold resistance: Comp. 1 1.000 μM, vs wild type; for EC50: Human immunodeficiency virus 1, MT4, Comp. 1 1.000 μM, read-out: median(EC50 (μM))
Experimental: (§1) Determination of the antiviral activity of a compound was done as described in Pauwels R. et al. (J Virol Methods 1988; 20(4):309-21). Various concentrations of the test compounds were brought into each well of a flat-bottom microtiter plate. Subsequently, HIV and MT4 cells were added to a final concentration of 200-250 50% cell culture infectious doses (CCID50)/well and 30,000 cells/well, respectively. After 5 days of incubation (37° C., 5% CO2), the cytopathic effect of the replicating virus was determined by the tetrazolium colorimetric MTT method. The dose protecting 50% of the cells from virus cytopathic effect was defined as the EC50, while the dose achieving 90% protection was defined as the EC90.
(§2) The reporter gene assay used MT4-LTR-EGFP cells. Upon infection by HIV-1, the expression of the viral tat product increases transcription from the HIV-1 LTR promoter, leading to high-level expression of the reporter gene product. The assay procedure was similar to the CPE assay except for the end reading of the assay, which was performed on day 3 by measuring the relative fluorescence of treated cultures and comparing this with the relative fluorescence of untreated cultures. The EC50 or the EC90 of a compound was defined as the concentration that inhibited the relative fluorescence by 50% or 90% respectively.
(§3) MT4-LTR-EGFP cells were infected at a multiplicity of infection (MOI) of 0.01 to 0.001 CCID50/cell in the presence of inhibitor. The cultures were sub-cultivated and scored microscopically on virus-induced fluorescence and cytopathogenicity every 3-4 days. The cultures were sub-cultivated in the presence of the same compound concentration until signs of virus replication were observed. The escaping virus was further cultivated in the presence of the same inhibitor concentration in order to enrich the population in resistant variants. If full virus breakthrough was observed the supernatant was collected and stored (new virus strain). Afterwards, the same virus was challenged with a higher compound concentration in order to select variants able to grow in the presence of as high as possible inhibitor concentrations. From the new viruses, a virus stock was grown in the absence of inhibitor.
(§4) The in vitro antiviral activity of compound 1 and current reverse transcriptase inhibitors against the selected strains was evaluated in acutely infected MT4 cells. Median EC50 values together with the fold change in resistance (expressed as a ration of EC50) as compared to wild type (FC) are reported.

[2] = test system: HIV-1/LAI-derived strain L100L/I, Y181C, T386A; experiment: Antiviral activity in acutely infected MT4 cells, strain selected at high MOI with compound 1 0.200 μM; settings: for EC50: Human immunodeficiency virus 1, MT4, 600 h, day 25, read-out: median(EC50 (μM)); for Fold resistance: day 25, vs wild type
Experimental: as §1, §2
(§5) Cells are infected at a high MOI (such as 1-50 CCID50/cell), corresponding to >10^9 viral RNA copies/ml. These experiments have been designed to mimic the quasi-species variability that is observed in HIV infected individuals where 10^9 to 10^10 new viruses are produced daily with a mutation rate of 10^−4 to 10^−5. The infected MT4-LTR-EGFP cells are treated with inhibitors at 40, 200 nM, 1 μM and higher for a maximum of 30 days. The cultures are subcultivated and scored on virus-induced fluorescence and cytopathicity every 3-4 days. If full virus breakthrough (100% CPE) is observed the supernatants was collected and stored (new virus strain). If no full CPE was observed the cells were subcultivated and further grown in the presence of the same concentration compound till full virus breakthrough, with a maximum of 30 days. From the emerging virus populations a virus stock was grown in the absence of compounds and titrated. The sensitivities of the isolated strains to HIV-1 RT inhibitors were determined and the strains were genotyped.
as §4

[3] = test system: HIV-1/LAI-derived strain I031L, A062A/V, L074L/V, Y181C, G190E, T386A; experiment: Antiviral activity in MT4 cells, low MOI strain selected at 15.000 μM, day 59; settings: for Fold resistance: Comp. 1 15.000 μM, vs wild type; for EC50: Human immunodeficiency virus 1, MT4, Comp. 1 15.000 μM, read-out: median(EC50 (μM))
Experimental: as §1, §2, §3, §4

HIV-1/LAI [4] = experiment: Antiviral activity in acutely infected MT4 cells, wild-type reference strain; settings: for EC50: Human immunodeficiency virus 1, wild-type HIV-1/LAI, no selection, MT4 cells, read-out: median(EC50 (μM)); for Fold resistance: wild-type HIV-1/LAI (reference), ratio of EC50 to wild type
Experimental: as §1, §2, §4

[5] = test system: HIV-1/LAI-derived strain Y181C, T386A; experiment: Antiviral activity in MT4 cells, low MOI strain selected at 0.040 μM, day 15; settings: Comp. 1 0.040 μM; for Fold resistance: vs wild type; for EC50: Human immunodeficiency virus 1, MT4, 360 h, read-out: median(EC50 (μM))
Experimental: as §1, §2, §3, §4

[6] = test system: HIV-1/LAI-derived strain I031L, A062A/V, Y181C, G190E, T386A; experiment: Antiviral activity in MT4 cells, low MOI strain selected at 15.000 μM, day 42; settings: for Fold resistance: Comp. 1 15.000 μM, vs wild type; for EC50: Human immunodeficiency virus 1, MT4, Comp. 1 15.000 μM, read-out: median(EC50 (μM))
Experimental: as §1, §2, §3, §4

[7] = test system: HIV-1/LAI-derived strain E006E/K, Y181C, M230I, T386A; experiment: Antiviral activity in MT4 cells, low MOI strain selected at 0.200 μM, day 22; settings: Comp. 1 0.200 μM; for Fold resistance: vs wild type; for EC50: Human immunodeficiency virus 1, MT4, 528 h, read-out: median(EC50 (μM))
Experimental: as §1, §2, §3, §4

[8] = test system: HIV-1/LAI-derived strain M164M/I, Y181C, D186D/N, M230M/I, T386A; experiment: Antiviral activity in MT4 cells, low MOI strain selected at 0.200 μM, day 28; settings: Comp. 1 0.200 μM; for Fold resistance: vs wild type; for EC50: Human immunodeficiency virus 1, MT4, 672 h, read-out: median(EC50 (μM))
Experimental: as §1, §2, §3, §4

[9] = test system: HIV-1/LAI-derived strain I031L/I, F116F/L, Y181C, G190E, T386A; experiment: Antiviral activity in MT4 cells, low MOI strain selected at 5.000 μM, day 42; settings: for Fold resistance: Comp. 1 5.000 μM, vs wild type; for EC50: Human immunodeficiency virus 1, MT4, Comp. 1 5.000 μM, read-out: median(EC50 (μM))
Experimental: as §1, §2, §3, §4

[10] = test system: HIV-1/LAI-derived strain I031L/I, Y181C, G190E, T386A; experiment: Antiviral activity in MT4 cells, low MOI strain selected at 5.000 μM, day 35; settings: for Fold resistance: Comp. 1 5.000 μM, vs wild type; for EC50: Human immunodeficiency virus 1, MT4, Comp. 1 5.000 μM, read-out: median(EC50 (μM))
Experimental: as §1, §2, §3, §4

HIV-1/LAI [11] = experiment: In vitro selection of resistant strains, low MOI, MT4-LTR-EGFP cells; settings: Y181C, T386A
From the text: as §3
(§6) In vitro drug selection experiments starting from wild-type HIV-1/LAI under pressure of compound 1, Efavirenz and Nevirapine have been performed.

HIV-1/LAI [12] = experiment: In vitro selection of resistant strains, high MOI, MT4-LTR-EGFP cells; settings: starting strain LAI, 0.200 μM, emerging L100L/I, Y181C, T386A
Experimental: as §5, §6

O=C1Nc2ccc(Cl)cc2[C@@](C#CC2CC2)(C(F)(F)F)O1 [Efavirenz] gave a Fold resistance [1] of 46 fold, an EC50 [1] of 0.0465 µM and an EC50 [2] of 0.208 µM. The Fold resistance [2] was 208 fold, the Fold resistance [3] was >10,000 fold and the EC50 [3] was > 10 µM. For the same compound, the EC50 (HIV-1/LAI [4]) was 0.001 µM, the Fold resistance (HIV-1/LAI [4]) was 1 fold and the Fold resistance [5] was 7 fold. It also gave an EC50 [5] of 0.0067 µM, a Fold resistance [6] of 209 fold and an EC50 [6] of 0.209 µM. The Fold resistance [7] was 7 fold, the EC50 [7] was 0.0067 µM and the Fold resistance [8] was 7 fold. It also gave an EC50 [8] of 0.0072 µM, a Fold resistance [9] of 44 fold and an EC50 [9] of 0.0442 µM.

With Cc1ccnc2c1NC(=O)c1cccnc1N2C1CC1 [Nevirapine] the Fold resistance [10] was >131 fold, the EC50 [10] was > 10 µM and the Fold resistance [1] was >131 fold. The EC50 [1] was > 10 µM, the Fold resistance [3] was >131 fold and the EC50 [3] was > 10 µM. For the same compound, the EC50 (HIV-1/LAI [4]) was 0.0763 µM, the Fold resistance (HIV-1/LAI [4]) was 1 fold and the Fold resistance [5] was >131 fold. For the same compound, the EC50 [5] was > 10 µM, the Fold resistance [6] was >131 fold and the EC50 [6] was > 10 µM. For the same compound, the Fold resistance [7] was >131 fold, the EC50 [7] was > 10 µM and the Fold resistance [8] was >131 fold. For the same compound, the EC50 [8] was > 10 µM, the Fold resistance [9] was >131 fold and the EC50 [9] was > 10 µM.

With Cc1cc(C#N)cc(C)c1Oc1nc(Nc2ccc(C#N)cc2)nc(N)c1Br [Compound 1, Benzonitrile, 4-[[6-amino-5-bromo-2-[(4-cyanophenyl)-amino]-4-pyrimidinyl]oxy]-3,5-dimethyl-] the Fold resistance [10] was 282 fold, the EC50 [10] was 0.394 µM and the Fold resistance [1] was 155 fold. For the same compound, the EC50 [1] was 0.217 µM, the Days to breakthrough (HIV-1/LAI [11]; 0.040 μM) was “day 15” and the Days to breakthrough (HIV-1/LAI [11]; 0.200 μM, E006E/K, M230I) was “day 22”. For the same compound, the Days to breakthrough (HIV-1/LAI [11]; 0.200 μM, M164M/I, D186D/N, M230M/I) was “day 28”, the Days to breakthrough (HIV-1/LAI [11]; 1.000 μM, G190E) was “day 35” and the Days to breakthrough (HIV-1/LAI [11]; 5.000 μM, I031L/I, F116F/L, G190E) was “day 42”. For the same compound, the Days to breakthrough (HIV-1/LAI [11]; 5.000 μM, I031L/I, G190E) was “day 35”, the Days to breakthrough (HIV-1/LAI [11]; 15.000 μM, I031L, A062A/V, L074L/V, G190E) was “day 59” and the Days to breakthrough (HIV-1/LAI [11]; 15.000 μM, I031L, A062A/V, G190E) was “day 42”. The EC50 [2] was 0.11 µM, the Fold resistance [2] was 78 fold and the Fold resistance [3] was >7,143 fold. The EC50 [3] was > 10 µM, the EC50 (HIV-1/LAI [4]) was 0.0014 µM and the Fold resistance (HIV-1/LAI [4]) was 1 fold. For the same compound, the Fold resistance [5] was 24 fold, the EC50 [5] was 0.0334 µM and the Fold resistance [6] was 441 fold. It also gave an EC50 [6] of 0.618 µM, a Fold resistance [7] of 21 fold and an EC50 [7] of 0.0298 µM. For the same compound, the Fold resistance [8] was 16 fold, the EC50 [8] was 0.0228 µM and the Fold resistance [9] was 90 fold. The EC50 [9] was 0.126 µM and the Days to breakthrough (HIV-1/LAI [12]) was “day 25”.
